Measured values from patent US6906097B2, “8-azaprostaglandin analogs as agents for lowering intraocular pressure” (Allergan, Inc., priority 2002, dated 2005).

Legend:
[1] = molecular target: T1, hEP4 (Homo sapiens, UniProt P35408); assay: Functional data, human recombinant EP4 receptor stable transfectants; assay type: cell-based
T1 construct: expressed in transfected cells
Experimental: (§1) Human Recombinant EP1, EP2, EP3, EP4, FP, TP, IP and DP Receptors: Stable Transfectants
(§2) Plasmids encoding the human EP1, EP2, EP3, EP4, FP, TP, IP and DP receptors were prepared by cloning the respective coding sequences into the eukaryotic expression vector pCEP4 (Invitrogen). The pCEP4 vector contains an Epstein Barr virus (EBV) origin of replication, which permits episomal replication in primate cell lines expressing EBV nuclear antigen (EBNA-1). It also contains a hygromycin resistance gene that is used for eukaryotic selection. […] HEK-293 cells were grown in DMEM with 10% fetal bovine serum (FBS), 250 μg ml^−1 G418 (Life Technologies) and 200 μg ml^−1 gentamicin or penicillin/streptomycin.
(§3) For transfection, the cells were grown to 50-60% confluency on 10 cm plates. The plasmid pCEP4 incorporating cDNA inserts for the respective human prostanoid receptor (20 μg) was added to 500 μl of 250 mM CaCl2. […] After 30 min, 9 ml DMEM were added to the mixture. The DNA/DMEM/calcium phosphate mixture was then added to the cells, which had been previously rinsed with 10 ml PBS. The cells were then incubated for 5 hr at 37° C. in humidified 95% air/5% CO2. The calcium phosphate solution was then removed and the cells were treated with 10% glycerol in DMEM for 2 min. The glycerol solution was then replaced by DMEM with 10% FBS. The cells were incubated overnight and the medium was replaced by DMEM/10% FBS containing 250 μg ml^−1 G418 and penicillin/streptomycin. The following day hygromycin B was added to a final concentration of 200 μg ml^−1.
(§4) Ten days after transfection, hygromycin B resistant clones were individually selected and transferred to a separate well on a 24 well plate. At confluence each clone was transferred to one well of a 6 well plate, and then expanded in a 10 cm dish. Cells were maintained under continuous hygromycin selection until use.

[2] = molecular target: T1, hEP4; assay: Radioligand binding, hEP4; conditions: [3H]PGE2 competition
Experimental: as §1, §2, §3, §4
Radioligand binding studies on plasma membrane fractions prepared for cells stably transfected with the cat or human receptor were performed as follows. Cells washed with TME buffer were scraped from the bottom of the flasks and homogenized for 30 sec using a Brinkman PT 10/35 polytron. TME buffer was added as necessary to achieve a 40 ml volume in the centrifuge tubes. TME is comprised of 50 mM TRIS base, 10 mM MgCl2, 1 mM EDTA; pH 7.4 is achieved by adding 1 N HCl. The cell homogenate was centrifuged at 19,000 rpm for 20-25 min at 4° C. using a Beckman Ti-60 or Ti-70 rotor. The pellet was then resuspended in TME buffer to provide a final protein concentration of 1 mg/ml, as determined by Bio-Rad assay. Radioligand binding assays were performed in a 100 μl or 200 μl volume.
The binding of [^3H](N) PGE2 (specific activity 165 Ci/mmol) was determined in duplicate and in at least 3 separate experiments. Incubations were for 60 min at 25° C. and were terminated by the addition of 4 ml of ice-cold 50 mM TRIS-HCl followed by rapid filtration through Whatman GF/B filters and three additional 4 ml washes in a cell harvester (Brandel). Competition studies were performed using a final concentration of 2.5 or 5 nM [^3H](N) PGE2 and non-specific binding was determined with 10^−5 M unlabelled PGE2.

[3] = molecular target: T2, hEP3A (Homo sapiens, UniProt P43115); assay: Functional data, human recombinant EP3A receptor stable transfectants; assay type: cell-based
T2 construct: expressed in transfected cells
T2 sequence (P43115 1-390): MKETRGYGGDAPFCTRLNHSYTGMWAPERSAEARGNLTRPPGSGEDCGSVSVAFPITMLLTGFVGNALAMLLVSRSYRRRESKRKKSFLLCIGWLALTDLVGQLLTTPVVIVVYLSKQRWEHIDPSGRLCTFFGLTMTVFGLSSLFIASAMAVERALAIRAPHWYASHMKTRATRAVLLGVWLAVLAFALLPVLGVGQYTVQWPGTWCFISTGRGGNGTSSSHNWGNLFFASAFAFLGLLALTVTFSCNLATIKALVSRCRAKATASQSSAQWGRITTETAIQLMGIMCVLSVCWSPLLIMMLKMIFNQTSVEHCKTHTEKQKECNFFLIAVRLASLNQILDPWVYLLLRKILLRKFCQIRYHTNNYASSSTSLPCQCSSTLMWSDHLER
Experimental: as §1, §2, §3, §4

[4] = molecular target: T3, hEP1 (Homo sapiens, UniProt P34995); assay: Functional data, human recombinant EP1 receptor stable transfectants; assay type: cell-based
T3 construct: expressed in transfected cells
T3 sequence (P34995 1-402): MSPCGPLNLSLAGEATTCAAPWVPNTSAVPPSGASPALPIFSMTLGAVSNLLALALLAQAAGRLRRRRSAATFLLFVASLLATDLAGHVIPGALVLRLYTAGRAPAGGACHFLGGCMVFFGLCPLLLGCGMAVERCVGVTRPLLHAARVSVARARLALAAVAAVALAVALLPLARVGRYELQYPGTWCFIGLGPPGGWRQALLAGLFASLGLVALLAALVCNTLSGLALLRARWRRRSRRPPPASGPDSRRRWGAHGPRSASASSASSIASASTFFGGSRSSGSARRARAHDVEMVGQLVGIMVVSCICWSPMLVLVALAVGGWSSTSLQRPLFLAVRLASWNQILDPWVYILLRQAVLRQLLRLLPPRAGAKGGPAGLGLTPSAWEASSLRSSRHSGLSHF
Experimental: as §1
(§5) Plasmids encoding the human EP1, EP2, EP3, EP4, FP, TP, IP and DP receptors were prepared by cloning the respective coding sequences into the eukaryotic expression vector pCEP4 (Invitrogen). The pCEP4 vector contains an Epstein Barr virus (EBV) origin of replication, which permits episomal replication in primate cell lines expressing EBV nuclear antigen (EBNA-1). It also contains a hygromycin resistance gene that is used for eukaryotic selection. The cells employed for stable transfection were human embryonic kidney cells (HEK-293) that were transfected with and express the EBNA-1 protein. These HEK-293-EBNA cells (Invitrogen) were grown in medium containing Geneticin (G418) to maintain expression of the EBNA-1 protein. HEK-293 cells were grown in DMEM with 10% fetal bovine serum (FBS), 250 μg ml^−1 G418 (Life Technologies) and 200 μg ml^−1 gentamicin or penicillin/streptomycin.
(§6) For transfection, the cells were grown to 50-60% confluency on 10 cm plates. The plasmid pCEP4 incorporating cDNA inserts for the respective human prostanoid receptor (20 μg) was added to 500 μl of 250 mM CaCl2. HEPES buffered saline×2 (2×HBS, 280 mM NaCl, 20 mM HEPES acid, 1.5 mM Na2 HPO4, pH 7.05-7.12) was then added dropwise to a total of 500 μl, with continuous vortexing at room temperature. After 30 min, 9 ml DMEM were added to the mixture. The DNA/DMEM/calcium phosphate mixture was then added to the cells, which had been previously rinsed with 10 ml PBS. The cells were then incubated for 5 hr at 37° C. in humidified 95% air/5% CO2. The calcium phosphate solution was then removed and the cells were treated with 10% glycerol in DMEM for 2 min. The glycerol solution was then replaced by DMEM with 10% FBS. The cells were incubated overnight and the medium was replaced by DMEM/10% FBS containing 250 μg ml^−1 G418 and penicillin/streptomycin. The following day hygromycin B was added to a final concentration of 200 μg ml^−1.
as §4

[5] = molecular target: T4, hTP (Homo sapiens, UniProt P21731); assay: Functional data, human recombinant TP receptor stable transfectants; assay type: cell-based
T4 construct: expressed in transfected cells
T4 sequence (P21731 1-343): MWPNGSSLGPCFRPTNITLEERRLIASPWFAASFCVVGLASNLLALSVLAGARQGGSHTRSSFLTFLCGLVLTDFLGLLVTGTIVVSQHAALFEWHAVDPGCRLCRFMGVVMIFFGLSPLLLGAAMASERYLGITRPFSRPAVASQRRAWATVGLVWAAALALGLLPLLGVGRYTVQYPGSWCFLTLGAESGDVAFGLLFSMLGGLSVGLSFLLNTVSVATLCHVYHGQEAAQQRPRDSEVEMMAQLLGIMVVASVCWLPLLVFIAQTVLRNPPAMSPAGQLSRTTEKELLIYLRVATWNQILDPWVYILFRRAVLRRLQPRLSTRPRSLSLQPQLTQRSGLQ
Experimental: as §1, §5, §6, §4

T1 sequence (P35408 whole entry): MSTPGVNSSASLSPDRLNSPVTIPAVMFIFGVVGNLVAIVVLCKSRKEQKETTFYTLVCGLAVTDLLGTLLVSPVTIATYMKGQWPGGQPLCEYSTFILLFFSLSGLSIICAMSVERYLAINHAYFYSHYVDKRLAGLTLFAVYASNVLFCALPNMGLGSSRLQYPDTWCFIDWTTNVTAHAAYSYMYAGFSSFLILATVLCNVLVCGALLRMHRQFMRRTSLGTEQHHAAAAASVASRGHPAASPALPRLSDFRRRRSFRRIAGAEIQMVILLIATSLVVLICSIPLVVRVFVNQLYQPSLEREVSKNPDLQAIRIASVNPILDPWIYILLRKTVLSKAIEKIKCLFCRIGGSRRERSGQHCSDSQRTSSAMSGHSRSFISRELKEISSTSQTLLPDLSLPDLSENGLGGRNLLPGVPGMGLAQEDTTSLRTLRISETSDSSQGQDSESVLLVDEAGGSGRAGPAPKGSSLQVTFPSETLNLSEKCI

Structure (SMILES)	EC50 [1] [nM]	IC50 [2] [nM]	hEP3A functional EC50 [3]	EC50 [4] [µM]	EC50 [5] [µM]	EC50 [3] [µM]	hEP1 functional EC50 [4]
CCOC(=O)CCCCCCN1C(=O)CC[C@@H]1/C=C/C(O)Cc1ccccc1 (stereo partly drawn) [Example 10a, 7-[2S-[3R-Hydroxy-(4-phenyl)-but-1-enyl]-5-oxo-pyrrolidin-1-yl]-heptanoic acid, ethyl ester]	368	600	–	–	–	–	–
CCOC(=O)CCCCCCN1C(=O)CC[C@@H]1/C=C/C(=O)Cc1cccc(Cl)c1 [Example 4a, 7-[2S-[4-(3-Chloro-phenyl)-3-oxo-but-1-enyl]-5-oxo-pyrrolidin-1-yl]-heptanoic acid, ethyl ester]	> 10000	> 10000	–	–	–	–	–
O=C(O)CCCCCCN1C(=O)CC[C@@H]1CCC(O)Cc1cccc(C(F)(F)F)c1 (stereo partly drawn) [Example 5, 7-[2S-[3R-Hydroxy-4-(3-trifluoromethyl-phenyl)-butyl]-5-oxo-pyrrolidin-1-yl]-heptanoic acid]	0.4	17	hit	–	–	–	–
O=C(O)CCCCCCN1C(=O)CC[C@@H]1CCC(=O)Cc1cccc(C(F)(F)F)c1 [Example 7, 7-[2S-[3-Oxo-4-(trifluormethylphenyl)-butyl]-5-oxo-pyrrolidin-1-yl]-heptanoic acid]	551	2200	hit	> 10	> 10	–	–
O=C(O)CCCCCCN1C(=O)CC[C@@H]1/C=C/C(O)Cc1cccc(C(F)(F)F)c1 (stereo partly drawn) [Example 5a, 7-[2S-[3R-Hydroxy-4-(3-trifluoromethyl-phenyl)-but-1-enyl]-5-oxo-pyrrolidin-1-yl]-heptanoic acid]	0.4	5	hit	–	–	–	–
CCOC(=O)CCCCCCN1C(=O)CC[C@@H]1CCC(=O)Cc1cccc(C(F)(F)F)c1 [Example 8, 7-[2S-[3-Oxo-4-(trifluoromethylphenyl)-butyl]-5-oxo-pyrrolidin-1-yl]-heptanoic acid, ethyl ester]	7160	> 10000	–	–	–	–	–
CCOC(=O)CCCCCCN1C(=O)CC[C@@H]1CCC(=O)Cc1ccccc1 [Example 12, 7-[2S-[3-Oxo-4-(phenyl)-butyl]-5-oxo-pyrrolidin-1-yl]-heptanoic acid, ethyl ester]	> 10000	8900	–	–	–	–	–
CCOC(=O)CCCCCCN1C(=O)CC[C@@H]1/C=C/C(=O)Cc1ccccc1 [Example 12a, 7-[2S-[3-Oxo-4-(phenyl)-but-1-enyl]-5-oxo-pyrrolidin-1-yl]-heptanoic acid, ethyl ester]	> 10000	> 10000	–	–	–	–	–
CCOC(=O)CCCCCCN1C(=O)CC[C@@H]1/C=C/C(=O)Cc1cccc(C(F)(F)F)c1 [Example 8a, 7-[2S-[3-Oxo-4-(trifluoromethylphenyl)-but-1-enyl]-5-oxo-pyrrolidin-1-yl]-heptanoic acid, ethyl ester]	> 10000	> 10000	–	–	–	> 10	–
CCOC(=O)CCCCCCN1C(=O)CC[C@@H]1CCC(O)Cc1cccc(C(F)(F)F)c1 (stereo partly drawn) [Example 6, 7-[2S-[3R-Hydroxy-4-(3-trifluoromethyl-phenyl)-butyl]-5-oxo-pyrrolidin-1-yl]-heptanoic acid, ethyl ester]	111	1200	–	–	–	–	–
O=C(O)CCCCCCN1C(=O)CC[C@@H]1/C=C/C(=O)Cc1cccc(Cl)c1 [Example 3a, 7-[2S-[4-(3-Chloro-phenyl)-3-oxo-but-1-enyl]-5-oxo-pyrrolidin-1-yl]-heptanoic acid]	54	300	–	–	> 10	0.324	hit
O=C(O)CCCCCCN1C(=O)CC[C@@H]1CCC(O)Cc1ccccc1 (stereo partly drawn) [Example 9, 7-[2S-[3R-Hydroxy-(4-phenyl)-butyl]-5-oxo-pyrrolidin-1-yl]-heptanoic acid]	2.4	18	–	–	–	> 10	–
CCOC(=O)CCCCCCN1C(=O)CC[C@@H]1CCC(O)Cc1cccc(Cl)c1 (stereo partly drawn) [Example 2, 7-[2S-[3R-Hydroxy-4-(chlorophenyl)-butyl]-5-oxo-pyrrolidin-1-yl]-heptanoic acid, ethyl ester]	65	1000	–	–	–	–	–
CCOC(=O)CCCCCCN1C(=O)CC[C@@H]1/C=C/C(O)Cc1cccc(Cl)c1 (stereo partly drawn) [Example 2a, 7-[2S-[3R-Hydroxy-4-(chlorophenyl)-but-1-enyl]-5-oxo-pyrrolidin-1-yl]-heptanoic acid, ethyl ester]	21	300	–	–	–	–	–
CCOC(=O)CCCCCCN1C(=O)CC[C@@H]1CCC(O)Cc1ccccc1 (stereo partly drawn) [Example 10, 7-[2S-[3R-Hydroxy-(4-phenyl)-butyl]-5-oxo-pyrrolidin-1-yl]-heptanoic acid, ethyl ester]	1020	–	–	–	–	–	–
